Laboratory results as given in BigSolDB 2.1.

CN1CCN(C(=O)O[C@H]2c3nccnc3C(=O)N2c2ccc(Cl)cn2)CC1
solubility (mole fraction)
Conditions | 288.15 K | 293.15 K | 298.15 K | 303.15 K | 308.15 K | 313.15 K | 318.15 K | 323.15 K | 328.15 K
in acetone | 0.0013 | 0.0015 | 0.0019 | 0.0023 | 0.0027 | 0.0032 | 0.0037 | – | –
in ethanol | 0.0002 | 0.0003 | 0.0004 | 0.0004 | 0.0005 | 0.0007 | 0.0009 | 0.001 | 0.0012
